The subject of the assay is MRSA. Particulars: Staphylococcus aureus.

≈ marks a conversion by molar mass, not a printed value. Like-named read-outs stand apart in the source and are kept apart here.

Experimental: Macroarray compounds are dissolved in DMSO and pipetted into a 96-well multititer plate containing Luria-Bertani (LB) broth inoculated with MRSA. The final concentrations of the compounds selected, e.g., 50 μM, 25 μM, 12.5 μM, 6.3 μM, and 3.1 μM, with a final DMSO concentration of 2.5% for each compound in a given well. The plate is incubated with shaking at 37° C. for 18 h, and the absorbance is measured at 595 nm using a plate-reader. The approximate MIC can be determined by the complete absence of bacterial growth relative to our negative control (LB broth with no bacteria added).
For estimated MIC determination, DMSO was added to the dried compound residue obtained from a single spot to afford ca. 100 μL of a 2 mM stock solution. Aliquots (5 μL) of these solutions were added to a 96-well plate, followed by 195 μL of diluted S. aureus 10390 (10^6 CFUs/mL) to yield ca. 50 μM final concentrations. The plates were swirled for 1 h to ensure compound dissolution, incubated for 12 h at 37° C., and the absorbance at 595 nm was recorded using a plate reader. […] Actual MIC values were determined for lead compounds resynthesized in solution using an analogous procedure with solutions of known concentration.
An aliquot of DMSO (ca. 100 μL depending on the loading of the parent hydroxyacetophenone) was added to the dried compound residue obtained after TFA cleavage and elution from a single spot. This afforded a 2.0 mM “spot stock” solution for each spot.
For estimated MIC screens, 5.0 μL portions of the “spot stock” solutions were added to the appropriate wells in a sterile, polystyrene 96-well plate to yield ca. 50 μM solutions (dependent on the initial loading of hydroxyacetopheneone and compound purity). […] All estimated MIC assays were performed in quadruplicate. Note: the MIC value is defined as the lowest concentration where no bacterial growth occurs.
This assay procedure is based in part on the method reported by Strøm et al. (Strøm, M. B.; Haug, E. B.; Skar, M. L.; Stensen, W.; Stiberg, T.; Svendsen, J. S. J. Med. Chem. 2003, 46, 1567-1570.) A 400 μL portion of overnight S. aureus 10390 culture was diluted with 100 mL of sterile LB broth to give ca. 10^6 CFUs per mL. Aliquots (195 μL) of this solution were added to all of the wells in a sterile 96-well plate (except for the negative control wells; 195 μL of sterile LB broth were added to these wells). The plates were placed on an orbital shaker table and gently swirled for 1 h to ensure compound dissolution, and then incubated (without shaking) for 12 h at 37° C. The absorbance at 595 nm was recorded using a plate reader.

One may read the MIC as the smallest concentration in the dilution series that meets the test's criterion for growth inhibition. With `NC(=O)COc1cccc(C(=O)/C=C/c2cccc(C(F)(F)F)c2)c1` [Compound B18], the MIC is 54 ± 1 µM (≈ 18.9 µg/mL) (read-out: Solution MIC) and 25 to 50 µM (≈ 8.73 to 17.5 µg/mL) (read-out: Support MIC).
For `CC(=O)NC[C@H]1CN(c2ccc(N3CCOCC3)c(F)c2)C(=O)O1` [linezolid], for the setting “read-out: Solution MIC”, the MIC was 5 ± 1 µM (≈ 1.69 µg/mL).
On the same count and under the same terms, with `O=C(O)c1cn(C2CC2)c2cc(N3CCNCC3)c(F)cc2c1=O` [ciprofloxacin] the figure was 0.6 ± 0.2 µM (≈ 0.199 µg/mL).
